The values that follow come from patent US20230287044A1, “NOVEL ANTIBACTERIAL PEPTIDE AND USE THEREOF” (priority 2020, published 2023).

The nature of data set [1]: Solubility of antibacterial peptides in solution. It is filed as physicochemical.
The test system of data set [2] is VRE (E. faecalis) ATCC 51575. It is filed as cell-based, Enterococcus faecalis. The settings on record: ATCC 51575, 18 h. In short, it runs like this:
(§1)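 Mid-log cultures grown in CAMHB and diluted to 1× 10^6 cfu/ml in PBS were mixed with an equal volume of peptide in CAMHB (80 µM to 0.63 µM twofold dilutions). MIC taken as the mean of three independent experiments.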

The subject of data set [3] is E. coli. In words: In vivo antibacterial activity in mice (survival rate after E. coli infection). The settings on record: E. coli 1 × 10^6 cfu/mouse subcutaneous; 100 mg/kg after 1, 24 and 48 hours; observed 7 days. Also on record: species or system mice (BALB/c). As for the experimental part: The results obtained by analyzing the antibacterial activity against bacteria (E. coli) according to treatment with KSH43 as a survival rate of mice (BALB/c, female. 7-weeks) are shown in FIG. 216.
Specifically, the strains were grown in CAMHB until the log phase, and then washed with PBS buffer, and infected by subcutaneous injection into mice to 1 × 10^6 cfu/mouse. After 1 hour, 24 hours, and 48 hours, KSH43 and PBS (negative control) were administered at a dose of 100 mg/kg. Thereafter, the survival rate of the mice was checked every 12 hours for 7 days and compared to measure the in vivo antibacterial activity.

Data set [4] concerns 30 species of Acinetobacter baumannii (A. baumannii). It is filed as cell-based. The settings on record: against 30 species of Acinetobacter baumannii. As for the experimental part: In addition, the results obtained by measuring the minimum inhibitory concentrations of KSH29, KSH42 and KSH43 against 30 species of Acinetobacter baumannii (A. baumannii) are shown in Table 4 below.
The minimum inhibitory concentrations (MIC) against the 30 species of Acinetobacter baumannii were measured in the following manner.
The strain 1605 was purchased from ATCC (American Type Culture Collection, USA). In addition, the strain 40203 was purchased from the Korean Culture Center of Microorganisms.
The COL^R refers to resistance to colistin, the TGC^R refers to resistance to tigecycline, and the TGC^I refers to tigecycline intermediate strains.

Data set [5] concerns MRSA (S. aureus) KCCM 40510. Type of data set: cell-based, Staphylococcus aureus. The settings on record: KCCM 40510, 18 h. In short, it runs like this:
as §1

The test system of data set [6] is MRPA (P. aeruginosa) CCARM 2180. Type of data set: cell-based, Pseudomonas aeruginosa. The settings on record: CCARM 2180, 18 h. In outline:
as §1

In data set [7] the test system is MRAB (A. baumannii) ATCC BAA 1605. Type of data set: cell-based, Acinetobacter baumannii. The settings on record: CAMHB, 37° C., 18 hours; average of three experiments. In outline: as §1

Converted amounts (≈) assume the structure as drawn. Square brackets hold non-standard residues; d marks the D form. Peptide text beside a SMILES is read from it.

Consider `CC[C@@H](C)[C@@H](NC(=O)[C@@H](Cc1c[nH]c2ccccc12)NC(=O)[C@@H](CCCNC(=N)N)NC(=O)[C@@H](CCCNC(=N)N)NC(=O)[C@H](N)CCCNC(=N)N)C(=O)N[C@H](Cc1c[nH]c2ccccc12)C(=O)N[C@@H](C(=O)N[C@H](CC(C)C)C(=O)N[C@H](Cc1c[nH]c2ccccc12)C(=O)N[C@H](CCCCN)C(N)=O)C(C)C` [KSH43, rrrwiwvlwk] (H-[dR][dR][dR][dW][dI][dW][dV][dL][dW][dK]-NH2; N-terminus assumed), for which the solubility (as a rule, the concentration that dissolves in the medium under given conditions) at 12 h is greater than 200 µM in data set [1] (aqueous buffer), greater than 25 µM in data set [1] (plasma or biological fluid) and greater than 2000 µM in data set [1] (water). Also, the “MIC VRE (E. faecalis) ATCC 51575” value in data set [2] was 0.63 µM (≈ 0.944 µg/mL). In data set [3], the “survival rate of mice” value is on record as “all mice administered with KSH43 survived for 7 days”. Moreover, the MIC50 (commonly an inhibitory concentration at the 50% level, which refers to growth in some studies and to a panel of isolates in others) in data set [4] amounted to 0.63 µM (≈ 0.944 µg/mL). Also, the MIC90 (usually the lowest concentration that inhibits either 90% of growth or 90% of the strains tested, depending on the study) in data set [4] came to 1.25 µM (≈ 1.87 µg/mL). The “MIC MRSA (S. aureus) KCCM 40510” value in data set [5] is listed as 0.63 µM (≈ 0.944 µg/mL). In addition, the “MIC MRPA (P. aeruginosa) CCARM 2180” value in data set [6] stood at 1.25 µM (≈ 1.87 µg/mL). Moreover, the “MIC MRAB (A. baumannii) ATCC BAA 1605” value in data set [7] turned out to be 0.63 µM (≈ 0.944 µg/mL).
